PubChem BioAssay (NCI)
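Protocol summary: plate cells (96-well), add compound at 5 concentrations, incubate 48 h, interpolate endpoints linearly. GI50 is the concentration that inhibits growth by half. At the TGI there is no net growth.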

Assays:
Assay in all cases: inhibition of tumour cell growth, NCI panel, 48 h
[1] = tested on: CAKI-1 renal
[2] = tested on: UACC-257 melanoma
[3] = tested on: SNB-75 CNS
[4] = tested on: SK-MEL-28 melanoma
[5] = tested on: HCT-116 colon
[6] = tested on: OVCAR-4 ovarian
[7] = tested on: OVCAR-5 ovarian
[8] = tested on: HCT-15 colon
[9] = tested on: CCRF-CEM leukemia
[10] = tested on: SNB-19 CNS

Compound	GI50 [1]	TGI [1]	GI50 [2]	TGI [2]	GI50 [3]	TGI [3]	GI50 [4]	TGI [4]	GI50 [5]	TGI [5]	GI50 [6]	TGI [6]	GI50 [7]	TGI [7]	GI50 [8]	TGI [8]	GI50 [9]	TGI [9]	GI50 [10]	TGI [10]
Nc1ncnc2occ(-c3ccc(NC(=O)Nc4cccc(C(F)(F)F)c4)cc3)c12	2.29 µM	13 µM	4.24 µM	8.86 µM	3.77 µM	9.69 µM	4.89 µM	12.7 µM	2.98 µM	16 µM	3.19 µM	17.7 µM	5.5 µM	13.3 µM	4.24 µM	18.2 µM	3.51 µM	20.1 µM	7.69 µM	21.3 µM
CCCCCCCCCCCCNC(=S)OCCCC		> 100 µM		> 100 µM		> 100 µM		> 100 µM		> 100 µM		> 100 µM		> 100 µM		> 100 µM		> 100 µM		> 100 µM
O=C(/C=C/c1cccc(Cl)c1)c1ccccc1	2.73 µM	11.5 µM	15.1 µM	29 µM	15.1 µM	28.6 µM	15.9 µM	30.2 µM	1.44 µM	2.97 µM	13.6 µM	26.8 µM	11.2 µM	24.5 µM	4.22 µM	22.7 µM	3.49 µM	23.2 µM	11.7 µM	25.8 µM
O=C1/C(=C/c2ccccc2)CN(C(=O)/C=C/c2ccccc2)C/C1=C\c1ccccc1		99.4 µM		37 µM		60.5 µM		21.4 µM		2.02 µM		24.7 µM		45.2 µM		18.3 µM		9 µM		25.9 µM
Cc1nc2ccccc2c(/C=C/c2ccc(F)cc2)c1C(=O)/C=C/c1ccccc1	1.58 µM	3.83 µM	2.82 µM	8.65 µM	8.15 µM	> 100 µM	2.36 µM	5.67 µM	1.25 µM	3.66 µM	3.66 µM	> 100 µM	1.92 µM	3.95 µM	1.92 µM	6.2 µM	2.44 µM	> 100 µM	1.88 µM	4.02 µM
CC(=O)OC1CCC2(C)C(=CCC3C2CCC2(C)C3CC3OC4(CCC(C)CN4)C(C)C32)C1 (stereo not given)		> 100 µM		> 100 µM		> 100 µM		> 100 µM		> 100 µM		> 100 µM		> 100 µM		> 100 µM		> 100 µM		> 100 µM
Nc1ncnc2c1ncn2C1(CO)OC(CO)C(O)C1O (stereo not given)		> 100 µM		> 100 µM		> 100 µM		> 100 µM		> 100 µM		> 100 µM		> 100 µM		> 100 µM		> 100 µM		> 100 µM
Cc1ccccc1-c1cc(=O)c2cc(C)c(C)c(C(=O)O)c2o1		> 100 µM		> 100 µM		> 100 µM		> 100 µM		> 100 µM		> 100 µM		> 100 µM		> 100 µM		> 100 µM		> 100 µM
CC(=O)OC1C(C)OC(Oc2c(-c3ccc(O)cc3)oc3cc(O)cc(O)c3c2=O)C(O)C1OC(C)=O (stereo not given)	41.4 µM	> 100 µM	27.6 µM	> 79.9 µM	27.5 µM	> 93.9 µM	29 µM	> 100 µM	35.1 µM	> 100 µM	35.9 µM	> 100 µM	> 100 µM	> 100 µM	52.3 µM	> 100 µM	30.2 µM	> 100 µM	36.2 µM	> 100 µM
CCCCCCCCCCCCNCCCc1ccccc1	1.79 µM	3.44 µM	1.74 µM	3.18 µM	1.43 µM	2.89 µM	1.72 µM	3.23 µM	1.78 µM	3.17 µM	1.57 µM	2.98 µM	1.68 µM	3.48 µM	1.71 µM	3.33 µM	2.15 µM	5.32 µM	2.07 µM	5.35 µM
Nc1ccccc1SC(CC(=O)c1ccccc1)c1c(Cl)cccc1Cl (stereo not given)	4.9 µM	39.9 µM	14.6 µM	28.6 µM	10.8 µM	30.1 µM	11.6 µM	23.9 µM	1.81 µM	4.56 µM	4.84 µM	18.4 µM	4.29 µM	15.7 µM	2.08 µM	5.92 µM	2.67 µM	8.49 µM	10.5 µM	22.9 µM
O=S(=O)(c1ccccc1)C1(C2(S(=O)(=O)c3ccccc3)CCN=N2)CCN=N1 (stereo not given)		> 100 µM		> 100 µM		> 100 µM		> 100 µM		> 100 µM		> 100 µM		> 100 µM		> 100 µM		> 100 µM		> 100 µM
COc1cccc(C2=C(c3cn(C)c4c(C)cccc34)C(=O)NC2=O)c1	> 14.1 µM	> 25 µM	> 25 µM	> 25 µM	0.909 µM	> 25 µM	> 25 µM	> 25 µM	> 18 µM	> 25 µM	> 14.3 µM	> 25 µM	> 25 µM	> 25 µM	14.2 µM	> 25 µM	> 25 µM	> 25 µM	> 25 µM	> 25 µM
O=C1c2c[n+](Cc3ccccc3)ccc2-c2nc3ccccc3c3ccnc1c23	1.2 µM	9.37 µM	0.865 µM	2.33 µM	0.804 µM	3.71 µM	0.954 µM	3.95 µM	0.422 µM	1.86 µM	0.468 µM	0.92 µM	1.63 µM	10.5 µM	0.87 µM	6.18 µM	0.951 µM	2.81 µM	0.389 µM	2.55 µM
Cc1cc(N)c2cc(NC(=O)/C=C\c3ccccc3Cl)ccc2n1	1.77 µM	3.24 µM	1.76 µM	3.23 µM	1.7 µM	3.21 µM	0.447 µM	0.886 µM	0.208 µM	0.416 µM	0.365 µM	0.971 µM	1.33 µM	2.69 µM	1.77 µM	3.27 µM	0.204 µM	0.448 µM	1.56 µM	2.95 µM
